# Structures can show the parent of a compound that is named as a salt.
# What was measured:
# [1] = molecular target: T1, histamine-H2 receptors (Cavia porcellus, UniProt P47747); assay: H2-agonistic activity, isolated guinea-pig atrium (method of van Rossum, cumulative dose-response curves); assay type: biochemical; settings: read-out: pD2 -value (Atrium) (converted)
# T1 construct: determined on isolated atrium and ileum of guinea-pig; from tissue; host or cells: isolated guinea-pig atrium
# Excerpt: (§1) The compounds according to this invention are distinguished by a novel, hitherto unknown and undescribed pharmacological overall activity. The new class of structure according to this invention has both a H1 -antagonistic active component and an H2 -agonistic component. These manifest the pharmacological results shown below. One recognized method of determining the H1 -antagonistic activity is the determination of the pA2 -values in vitro (O. Arunlakshana and H. O. Schild, (1959), "Some Quantitative Uses of Drug Antagonists", Br. J. Pharmac. Chemother, 14, 48-58). To determine the H2 -agonistic activity (pD2 -values), the method of J. M. van Rossum, (1963) is employed, described in "Cumulative Dose-Response Curves II. Technique for the Making of Dose-Response Curves in Isolated Organs and the Evaluation of Drug Parameters", Arch. Intern. Pharmacodyn. Therap. 143, 299-307. |(determined on isolated atrium and ileum of guinea-pig)
# [2] = molecular target: T2, histamine H1 receptor (Cavia porcellus, UniProt P31389); assay: H1-antagonistic activity in vitro, isolated guinea-pig ileum (method of Arunlakshana and Schild); assay type: biochemical; settings: for Kb: read-out: pA2 -value (Ileum) (converted)
# T2 construct: determined on isolated atrium and ileum of guinea-pig; from tissue; host or cells: isolated guinea-pig ileum
# T2 sequence (P31389 whole entry): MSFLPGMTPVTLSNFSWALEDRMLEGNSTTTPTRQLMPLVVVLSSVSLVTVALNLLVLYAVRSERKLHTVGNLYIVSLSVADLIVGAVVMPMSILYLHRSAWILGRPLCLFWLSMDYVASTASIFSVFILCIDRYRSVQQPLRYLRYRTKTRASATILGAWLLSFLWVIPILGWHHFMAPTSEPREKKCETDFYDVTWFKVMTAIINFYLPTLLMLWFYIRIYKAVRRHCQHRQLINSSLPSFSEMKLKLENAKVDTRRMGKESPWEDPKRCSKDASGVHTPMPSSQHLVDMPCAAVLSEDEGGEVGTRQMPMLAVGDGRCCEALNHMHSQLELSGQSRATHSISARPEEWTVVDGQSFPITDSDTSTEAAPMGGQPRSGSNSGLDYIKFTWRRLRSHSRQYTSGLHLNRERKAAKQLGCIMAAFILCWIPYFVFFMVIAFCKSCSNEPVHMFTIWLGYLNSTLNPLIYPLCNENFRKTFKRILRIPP
# Excerpt: as §1
# T1 sequence (P47747 whole entry): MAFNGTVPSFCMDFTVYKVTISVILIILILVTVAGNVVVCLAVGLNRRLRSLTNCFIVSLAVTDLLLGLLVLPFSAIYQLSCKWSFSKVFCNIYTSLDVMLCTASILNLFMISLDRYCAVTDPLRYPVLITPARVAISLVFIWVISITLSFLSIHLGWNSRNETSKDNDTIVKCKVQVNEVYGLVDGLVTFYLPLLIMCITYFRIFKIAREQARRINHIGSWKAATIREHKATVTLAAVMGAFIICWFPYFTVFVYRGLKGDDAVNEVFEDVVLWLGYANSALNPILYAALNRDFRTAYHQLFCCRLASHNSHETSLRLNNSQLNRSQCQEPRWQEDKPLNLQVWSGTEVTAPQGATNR
EC50 [1],Kb [2],pA2 -value (Ileum) [2],Structure (SMILES)
112 nM,309 nM,,"N=C(NCCCCc1ccccn1)NCCCc1c[nH]cn1 [Example 2, N^1-[3-(1H-Imidazol-4-yl)propyl]-N^2-[4-(pyridin-2-yl)butyl]-guanidine hydriodide]"
13.8 nM,112 nM,,"N=C(NCCCc1c[nH]cn1)NCCC(c1ccccn1)c1ccc(Cl)cc1Cl (centres unmarked) [Example 16, N^1-[3-(2,4-Dichlorophenyl)-3-(pyridin-2-yl)propyl]-N^2-[3-(1H-imidazol-4-yl)-propyl]-guanidine]"
6.31 nM,115 nM,,"N=C(NCCCc1c[nH]cn1)NCCC(c1ccc(Cl)c(Cl)c1)c1ccccn1 (centres unmarked) [Example 14, N^1-[3-(3,4-Dichlorophenyl)-3-(pyridin-2-yl)propyl]-N^2-[3-(1H-imidazol-4-yl)propyl]-guanidine]"
8.91 nM,282 nM,,"N=C(NCCCc1c[nH]cn1)NCCC(c1cc(F)cc(F)c1)c1ccccn1 (centres unmarked) [Example 18, N^1-[3-(3,5-Difluorophenyl)-3-(pyridin-2-yl)propyl]-N^2-[3-(1H-imidazol-4-yl)propyl]-guanidine]"
437 nM,9.12 nM,,"N=C(NCCCc1c[nH]cn1)NCCN(Cc1cccs1)c1ccccn1 [Example 4, N^1-[3-(1H-Imidazol-4-yl)propyl]-N^2 [2-[N-(pyridin-2-yl)-N-(thiophen-2-yl-methyl)amino]ethyl]-guanidine hydriodide]"
8.13 nM,,6.71,"NC(=NCCCc1c[nH]cn1)NCCC(c1ccc(F)cc1)c1cccnc1 (centres unmarked) [Example 24, N^1-[3-(4-Fluorophenyl)-3-(pyridin-3-yl)propyl]-N^2-[3-(1H-imidazol-4-yl)-propyl]-guanidine]"
2140 nM,2.51 nM,,"N=C(NCCCc1c[nH]cn1)NCCCN(Cc1ccc(Cl)cc1)c1ccccn1 [Example 3, N^1-[3-(1H-Imidazol-4-yl)propyl]-N^2-[3-[N-(4-chlorobenzyl)-N-(pyridin-2-yl)amino]propyl]-guanidine hydriodide]"
7.59 nM,,7.07,"NC(=NCCCc1c[nH]cn1)NCCC(c1ccc(F)c(F)c1)c1ccccn1 (centres unmarked) [Example 17, N^1-[3-(3,4-Difluorophenyl)-3-(pyridin-2-yl)propyl]-N^2-[3-(1H-imidazol-4-yl)propyl]-guanidine]"
11.5 nM,,7.05,"NC(=NCCCc1c[nH]cn1)NCCC(c1cccc(Cl)c1)c1ccccn1 (centres unmarked) [Example 20, N^1-[3-(3-Chlorophenyl)-3-(pyridin-2-yl)propyl]-N^2-[3-(1H-imidazol-4-yl)propyl]-guanidine]"
123 nM,37.2 nM,,"CC(CCNC(=N)NCCCc1c[nH]cn1)(c1ccccc1)c1ccccc1 [Example 8, N^1-[3-(1H-Imidazol-4-yl)propyl]-N^2-(3,3-diphenylbutyl)-guanidine hydrochloride]"

# From patent US4912119A, “Imidazolylguanidine derivatives and compositions containing these compounds” (Heumann Pharma GmBH & Co., priority 1986, dated 1990)
